The results in this text go back to US10259808B2 (Genentech, Inc., priority 2015, dated 2019).

The target in the first assay is T1, RORc ligand binding domain (Homo sapiens, UniProt P51449).
T1 sequence (P51449 269-508 limits assumed): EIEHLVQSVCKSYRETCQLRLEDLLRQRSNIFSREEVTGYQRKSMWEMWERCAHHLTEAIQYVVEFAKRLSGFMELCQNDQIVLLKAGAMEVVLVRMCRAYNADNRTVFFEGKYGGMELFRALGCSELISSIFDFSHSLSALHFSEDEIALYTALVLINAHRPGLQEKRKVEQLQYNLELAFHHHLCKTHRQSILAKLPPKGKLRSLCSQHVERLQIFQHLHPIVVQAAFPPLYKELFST
The assay is described as follows: In vitro RORc ligand binding assay (25-[3H]hydroxycholesterol displacement).
Settings: not given
Consider `CO[C@]1(C)C[C@@](c2n[nH]c(=O)o2)(c2cc(F)c(CN3[C@@H](C)CC[C@H](c4ccccc4)S3(=O)=O)cc2F)C1` [Example 157, cis 5-[1-[2,5-difluoro-4-[[(3S,6R)-3-methyl-1,1-dioxo-6-phenyl-thiazinan-2-yl]methyl]phenyl]-3-methoxy-3-methyl-cyclobutyl]-3H-1,3,4-oxadiazol-2-one], for which the IC50 amounted to 7.4 nM. This lies in the single-digit nanomolar range. Regarding `C[C@H]1CC[C@H](c2ccccc2)S(=O)(=O)N1Cc1cc(F)c([C@]2(c3c[nH]c(=O)o3)C[C@](C)(O)C2)cc1F` [Example 158, 5-[1-[2,5-difluoro-4-[[(3S,6R)-3-methyl-1,1-dioxo-6-phenyl-thiazinan-2-yl]methyl]phenyl]-3-hydroxy-3-methyl-cyclobutyl]-3H-oxazol-2-one], the IC50 came to 3.2 nM.

On to `C[C@H]1CC[C@H](c2ccccc2)S(=O)(=O)N1Cc1cc(F)c([C@]2(c3cn(C)c(=O)o3)C[C@](C)(O)C2)cc1F` [Example 159, 5-[1-[2,5-difluoro-4-[[(3S,6R)-3-methyl-1,1-dioxo-6-phenyl-thiazinan-2-yl]methyl]phenyl]-3-hydroxy-3-methyl-cyclobutyl]-3-methyl-oxazol-2-one], for which the IC50 came out at 2.8 nM.

`Cc1[nH]c(=O)oc1[C@]1(c2cc(F)c(CN3[C@@H](C)CC[C@H](c4ccccc4)S3(=O)=O)cc2F)C[C@@](C)(O)C1` [Example 160, 5-[1-[2,5-difluoro-4-[[(3S,6R)-3-methyl-1,1-dioxo-6-phenyl-thiazinan-2-yl]methyl]phenyl]-3-hydroxy-3-methyl-cyclobutyl]-4-methyl-3H-oxazol-2-one] registered an IC50 of 13.6 nM. `C[C@H]1CC[C@H](c2ccccc2)S(=O)(=O)N1Cc1cc(F)c([C@]2(c3cc(=O)n(C)o3)C[C@](C)(O)C2)cc1F` [Example 161, 5-[1-[2,5-difluoro-4-[[(3S,6R)-3-methyl-1,1-dioxo-6-phenyl-thiazinan-2-yl]methyl]phenyl]-3-hydroxy-3-methyl-cyclobutyl]-2-methyl-isoxazol-3-one] had an IC50 of 5.2 nM. Regarding `COc1cc([C@]2(c3cc(F)c(CN4[C@@H](C)CC[C@H](c5ccccc5)S4(=O)=O)cc3F)C[C@@](C)(O)C2)on1` [Example 162, 3-[2,5-difluoro-4-[[(3S,6R)-3-methyl-1,1-dioxo-6-phenyl-thiazinan-2-yl]methyl]phenyl]-3-(3-methoxyisoxazol-5-yl)-1-methyl-cyclobutanol], the IC50 is 3.6 nM. The IC50 values of the last two compounds are within 1.5-fold of each other.

Take `C=C[C@]1(O)C[C@@](c2c[nH]c(=O)o2)(c2cc(F)c(CN3[C@@H](C)CC[C@H](c4ccccc4)S3(=O)=O)cc2F)C1` [Example 164, 5-[1-[2,5-difluoro-4-[[(3S,6R)-3-methyl-1,1-dioxo-6-phenyl-thiazinan-2-yl]methyl]phenyl]-3-hydroxy-3-vinyl-cyclobutyl]-3H-oxazol-2-one]: the IC50 came to 6.1 nM. As for `C[C@H]1CC[C@H](c2ccccc2)S(=O)(=O)N1Cc1cc(F)c([C@]2(c3c[nH]c(=O)o3)C[C@@](O)(C3CC3)C2)cc1F` [Example 165, 5-[3-cyclopropyl-1-[2,5-difluoro-4-[[(3S,6R)-3-methyl-1,1-dioxo-6-phenyl-thiazinan-2-yl]methyl]phenyl]-3-hydroxy-cyclobutyl]-3H-oxazol-2-one], the IC50 was determined as 6.7 nM. On the same count and under the same terms, under `C[C@H]1CC[C@H](c2ccccc2)S(=O)(=O)N1Cc1cc(F)c(C2(C(=O)NCC3COC3)CCOCC2)cc1F` [Example 346, 4-[2,5-difluoro-4-[[(3S,6R)-3-methyl-1,1-dioxo-6-phenyl-thiazinan-2-yl]methyl]phenyl]-N-(oxetan-3-ylmethyl)tetrahydropyran-4-carboxamide] stands 47.4 nM.

Staying with this assay, now noted: IC50 values for RORc.
The compound “cis 5-[1-[2,5-difluoro-4-[[(3S,6R)-3- methyl-1,1-dioxo-6-phenyl-thiazinan-2- yl]methyl]phenyl]-3-hydroxy-3- (trifluoromethyl)cyclobutyl]-3H-1,3,4- oxadiazol-2-one [Example 148]” gave an IC50 of 11 nM.
